Assay results from PMC8657792, “Interaction Profiles of Central Nervous System Active Drugs at Human Organic Cation Transporters 1–3 and Human Plasma Membrane Monoamine Transporter” (International Journal of Molecular Sciences, 2021).
Where two headings read alike, the source gives them in different places.

Assays:
hOCT3 [1] = target: T1, hOCT3 (Homo sapiens, UniProt O75751); test: [3H]MPP+ uptake inhibition assay, HEK293 cells stably expressing hOCT3; type: cell-based; conditions: for Effect on substrate uptake by hOCT3 (in words): [3H]MPP+ uptake, HEK293 hOCT3
T1 construct: expressed in transfected cells
T1 sequence (O75751 1-556): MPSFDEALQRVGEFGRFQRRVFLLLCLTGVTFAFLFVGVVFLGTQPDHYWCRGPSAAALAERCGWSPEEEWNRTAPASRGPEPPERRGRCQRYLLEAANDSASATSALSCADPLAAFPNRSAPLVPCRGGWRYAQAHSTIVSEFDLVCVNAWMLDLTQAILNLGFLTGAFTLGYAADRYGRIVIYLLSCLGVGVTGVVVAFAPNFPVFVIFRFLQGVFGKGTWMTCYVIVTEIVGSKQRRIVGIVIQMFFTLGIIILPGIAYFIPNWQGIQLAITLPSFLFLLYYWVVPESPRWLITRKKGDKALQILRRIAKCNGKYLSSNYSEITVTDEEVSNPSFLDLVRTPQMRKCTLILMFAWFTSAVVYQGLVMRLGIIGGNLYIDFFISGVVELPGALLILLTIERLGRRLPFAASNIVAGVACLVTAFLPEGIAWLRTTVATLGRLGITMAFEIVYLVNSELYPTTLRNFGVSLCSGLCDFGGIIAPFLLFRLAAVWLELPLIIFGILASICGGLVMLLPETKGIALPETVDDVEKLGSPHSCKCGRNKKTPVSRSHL
Method: (§1) HEK293 cells were transfected with a plasmid, encoding the transporter of interest and an N-terminal YFP-tag, carried out using jetPRIME ^© (Polyplus Transfection; (VWR International GmbH, Vienna, Austria)) reagent (for a 10 cm dish with 1–2 × 10^6 cells in 10 mL serum containing medium at 60–80% confluency: 500 μ L jetPRIME ^© buffer, 10 μ g DNA and 20 μ L jetPRIME ^© reagent) and selection pressure maintained for two weeks [2, 54, 55]. Subsequently, 500,000 cells were FACS-sorted (fluorescence-activated cell sorting) according to expression level to establish cell lines stably expressing the protein of interest. […] For uptake inhibition assays, cells were cultured at a subconfluent (80–90% density) state in high-glucose Dulbecco’s Modified Eagle Medium (DMEM ), enriched with 10% heat-inactivated Fetal Bovine Serum (FBS) and penicillin/streptomycin (PS; 100 U × 100 mL ^−1 , each). Selection pressure was maintained by the addition of geneticin (50 mg × mL ^−1 ) at 37 ^∘ C and 5% CO 2 in a humidified incubator. At a density of 60,000 cells per well, HEK293 cells expressing the respective transporter were seeded onto poly-D-lysine-coated wells 24 h prior to uptake inhibition experiments in a final volume of 200 μ L per well.
(§2) Prior to the addition of the respective compounds, DMEM was removed from all wells and replaced with 200 μ L of Krebs-HEPES-buffer (KHB; 10 mM HEPES, 120 mM NaCl, 3 mM KCl, 2 mM CaCl 2 , 2 mM MgSO 4 and 20 mM D-glucose, pH adjusted to 7.3) at room temperature. Cells were exposed to a pre-incubation solution containing the compound of interest in the respective concentration (dissolved in Krebs-HEPES-buffer) for 10 min with a total volume of 50 μ L, which was then replaced with a 50 μ L uptake solution containing 0.05 μ M of tritiated 1-methyl-4-phenylpyridinium ([ ^3 H]MPP ^+ ) as substrate, and the compound of interest in respective concentrations, for 10 minutes each. Finally, uptake was terminated by washing with 200 μ L of ice-cold (4 ^∘ C) KHB, after which cells were lysed with 200 μ L of 1% sodium dodecyl sulphate (SDS). After transferring the solution of each well into 6 mL counting vials containing 2 mL of scintillation cocktail, the vials were measured with a beta-scintillation counter for quantification of the uptake of tritiated substrate. […] To obtain specific data, non-specific uptake was assessed in the presence of 100 μ M D22 and subtracted from the total data. The 100% values were defined as uptake in the absence of a tested substance, defining maximal uptake capacity. Inhibitions of the compound of interest were described as a percentage of the maximal uptake capacity.
(§3) Half-maximal inhibitory concentration ( IC50 ) values of each substance were calculated and plotted using GraphPad Prism 8.4.3 (GraphPad Software Inc., San Diego, CA, USA). IC50 was determined by non-linear regression, solving the equation Y=Bottom+(Top−Bottom)/(1+10^X−LogEC50) . […] All data stem from a minimum of three separate experiments (n≥ 3) executed in triplicates and are shown as mean ± SD.

hOCT2 [2] = target: T2, hOCT2 (Homo sapiens, UniProt O15244); test: [3H]MPP+ uptake inhibition assay, HEK293 cells stably expressing hOCT2; type: cell-based; conditions: for Effect on substrate uptake by hOCT2 (in words): [3H]MPP+ uptake, HEK293 hOCT2
T2 construct: expressed in transfected cells
T2 sequence (O15244 1-555): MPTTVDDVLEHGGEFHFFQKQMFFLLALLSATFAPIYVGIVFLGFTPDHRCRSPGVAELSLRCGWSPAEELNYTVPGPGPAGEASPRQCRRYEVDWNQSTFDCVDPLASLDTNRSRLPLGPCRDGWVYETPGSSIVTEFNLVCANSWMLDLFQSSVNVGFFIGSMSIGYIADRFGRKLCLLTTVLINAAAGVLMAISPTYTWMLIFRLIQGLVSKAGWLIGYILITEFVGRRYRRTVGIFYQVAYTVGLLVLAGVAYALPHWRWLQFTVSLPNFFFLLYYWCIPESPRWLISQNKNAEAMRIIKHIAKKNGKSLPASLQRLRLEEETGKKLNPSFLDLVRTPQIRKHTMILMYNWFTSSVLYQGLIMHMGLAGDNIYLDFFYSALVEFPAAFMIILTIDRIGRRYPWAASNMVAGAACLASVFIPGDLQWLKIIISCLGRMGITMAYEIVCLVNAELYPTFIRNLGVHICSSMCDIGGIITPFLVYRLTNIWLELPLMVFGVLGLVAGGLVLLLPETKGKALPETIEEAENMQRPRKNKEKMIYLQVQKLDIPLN
Method: as §1, §2, §3

hOCT1 [3] = target: T3, hOCT1 (Homo sapiens, UniProt O15245); test: [3H]MPP+ uptake inhibition assay, HEK293 cells stably expressing hOCT1; type: cell-based; conditions: for Effect on substrate uptake by hOCT1 (in words): [3H]MPP+ uptake, HEK293 hOCT1
T3 construct: expressed in transfected cells
T3 sequence (O15245 1-554): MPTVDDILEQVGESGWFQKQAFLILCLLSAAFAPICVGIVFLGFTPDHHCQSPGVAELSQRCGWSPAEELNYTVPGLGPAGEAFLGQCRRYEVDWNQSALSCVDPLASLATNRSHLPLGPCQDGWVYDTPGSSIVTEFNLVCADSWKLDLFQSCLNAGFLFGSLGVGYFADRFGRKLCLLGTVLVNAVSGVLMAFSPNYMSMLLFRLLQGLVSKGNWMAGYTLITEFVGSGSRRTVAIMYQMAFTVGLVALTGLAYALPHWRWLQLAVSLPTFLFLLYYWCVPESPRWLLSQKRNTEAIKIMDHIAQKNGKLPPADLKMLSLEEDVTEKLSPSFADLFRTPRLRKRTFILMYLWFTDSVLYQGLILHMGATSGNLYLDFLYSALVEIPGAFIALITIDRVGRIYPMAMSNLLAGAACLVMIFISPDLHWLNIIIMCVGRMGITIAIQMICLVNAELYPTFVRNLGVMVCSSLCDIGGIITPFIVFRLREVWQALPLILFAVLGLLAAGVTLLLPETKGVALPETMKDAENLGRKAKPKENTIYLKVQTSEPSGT
Method: as §1, §2, §3

hPMAT = target: T4, hPMAT (Homo sapiens, UniProt Q7RTT9); test: [3H]MPP+ uptake inhibition assay, HEK293 cells stably expressing hPMAT; type: cell-based; conditions: for Effect on substrate uptake by hPMAT (in words): [3H]MPP+ uptake, HEK293 hPMAT
T4 construct: expressed in transfected cells
T4 sequence (Q7RTT9 1-530): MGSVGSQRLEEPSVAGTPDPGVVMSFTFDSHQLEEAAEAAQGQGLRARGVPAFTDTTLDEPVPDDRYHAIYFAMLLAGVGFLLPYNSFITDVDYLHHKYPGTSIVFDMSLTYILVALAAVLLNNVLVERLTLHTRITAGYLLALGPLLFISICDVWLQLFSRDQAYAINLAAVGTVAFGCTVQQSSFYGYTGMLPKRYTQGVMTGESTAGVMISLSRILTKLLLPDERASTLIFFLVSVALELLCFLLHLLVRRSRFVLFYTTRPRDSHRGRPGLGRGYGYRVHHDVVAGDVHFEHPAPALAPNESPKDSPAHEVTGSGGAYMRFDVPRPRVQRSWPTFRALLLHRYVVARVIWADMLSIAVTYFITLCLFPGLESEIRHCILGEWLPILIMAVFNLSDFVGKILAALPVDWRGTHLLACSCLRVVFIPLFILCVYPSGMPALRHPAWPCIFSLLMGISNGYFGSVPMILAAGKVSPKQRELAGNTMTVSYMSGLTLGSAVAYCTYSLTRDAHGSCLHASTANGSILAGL
Method: as §1, §2, §3

hOCT1 [4] = target: T3, hOCT1; conditions: Table S1, supplementary reference list, cited from earlier work; for Ki: read-out: IC50 literature hOCT1 (Ki), Ki values; for IC50: read-out: IC50 literature hOCT1
hOCT2 [5] = target: T2, hOCT2; conditions: read-out: IC50 literature hOCT2 (Ki); Table S1; Ki values; supplementary reference list; cited from earlier work
hOCT3 [6] = target: T1, hOCT3; conditions: read-out: IC50 literature hOCT3 (Ki); Table S1; Ki values; supplementary reference list; cited from earlier work
[7] = HEK293 stably expressing hOCT2, 0.05 μM [3H]MPP+, 10 min pre-incubation, 10 min uptake, brackets in Table S1 = 95%-CI, n.s. = non-significant, read-out: IC50 hOCT2 (inhibitory potency, [3H]MPP+ uptake)
[8] = HEK293 stably expressing hOCT1, 0.05 μM [3H]MPP+, 10 min pre-incubation, 10 min uptake, brackets in Table S1 = 95%-CI, n.s. = non-significant, read-out: IC50 hOCT1 (inhibitory potency, [3H]MPP+ uptake)
[9] = HEK293 stably expressing hPMAT, 0.05 μM [3H]MPP+, 10 min pre-incubation, 10 min uptake, brackets in Table S1 = 95%-CI, n.s. = non-significant, read-out: IC50 hPMAT (inhibitory potency, [3H]MPP+ uptake)
[10] = HEK293 stably expressing hOCT3, 0.05 μM [3H]MPP+, 10 min pre-incubation, 10 min uptake, brackets in Table S1 = 95%-CI, n.s. = non-significant
[11] = HEK293 stably expressing hPMAT, 0.05 μM [3H]MPP+, 10 min pre-incubation, 10 min uptake, brackets in Table S1 = 95%-CI, n.s. = non-significant
[12] = HEK293 stably expressing hOCT2, 0.05 μM [3H]MPP+, 10 min pre-incubation, 10 min uptake, brackets in Table S1 = 95%-CI, n.s. = non-significant
[13] = HEK293 stably expressing hOCT1, 0.05 μM [3H]MPP+, 10 min pre-incubation, 10 min uptake, brackets in Table S1 = 95%-CI, n.s. = non-significant

Row | Compound | Effect on substrate uptake by hOCT3 (in words) (hOCT3 [1]) | IC50 (hOCT2 [2]) [µM] | IC50 (hOCT1 [3]) [µM] | IC50 hOCT3 (inhibitory potency, [3H]MPP+ uptake) (hOCT3 [1]; [10]) | IC50 hPMAT (inhibitory potency, [3H]MPP+ uptake) (hPMAT; [11]) | Effect on substrate uptake by hPMAT (in words) (hPMAT) | further results
1 | CCN1/C(=C/c2ccc3ccccc3[n+]2CC)C=Cc2ccccc21 [Decynium-22] |  |  |  |  |  |  | IC50 (hOCT3 [1]; HEK293 stably expressing hOCT3, 0.05 μM [3H]MPP+, 10 min pre-incubation, 10 min uptake, brackets in Table S1 = 95%-CI, n.s. = non-significant, read-out: IC50 hOCT3 (inhibitory potency, [3H]MPP+ uptake)): 0.16 µM; IC50 (hOCT2 [2]; [7]): 4.56 µM; IC50 (hOCT1 [3]; [8]): 2.66 µM; IC50 (hPMAT; [9]): 0.35 µM
2 | CNC(C)Cc1ccc2c(c1)OCO2 (centres unmarked) [MDMA, 3,4-methylenedioxymethamphetamine] | not inhibiting uptake | 2.71 | 1.14 |  |  |  | Ki (hOCT1 [4]): 24.2 ± 9.2 µM; IC50 (hOCT3 [1]): 154 µM; Ki (hOCT2 [5]): 1.63 ± 0.62 µM; IC50 (hPMAT): 7.77 µM; Ki (hOCT3 [6]): 73.6 ± 50.3 µM
3 | COC(=O)[C@H]1[C@@H](OC(=O)c2ccccc2)C[C@@H]2CC[C@H]1N2C [Cocaine, cocaine] |  | 27.8 | 6.66 | n.s. | n.s. |  | Ki (hOCT1 [4]): 85 ± 22 µM; Ki (hOCT2 [5]): 113 ± 21 µM
4 | COC(=O)C(c1ccccc1)C1CCCCN1 (centres unmarked) [Methylphenidate, methylphenidate] |  | 28.8 | 0.36 | n.s. | n.s. |  | 
5 | CCC1(c2ccccc2)C(=O)NC(=O)NC1=O [Phenobarbital, phenobarbital] | not interacting |  |  | n.s. |  | not interacting | IC50 hOCT2 (inhibitory potency, [3H]MPP+ uptake) (hOCT2 [2]; [12]): n.s.; Effect on substrate uptake by hOCT2 (in words) (hOCT2 [2]): increased uptake of substrate; IC50 hOCT1 (inhibitory potency, [3H]MPP+ uptake) (hOCT1 [3]; [13]): n.s.; Effect on substrate uptake by hOCT1 (in words) (hOCT1 [3]): increased uptake of substrate; IC50 (hPMAT): 1030 µM
6 | CN(C)CCC[C@@]1(c2ccc(F)cc2)OCc2cc(C#N)ccc21 [S-Citalopram, S-citalopram] |  |  |  |  |  |  | IC50 (hOCT2 [2]; [7]): 59.9 µM; IC50 (hOCT1 [3]; [8]): 7.15 µM; IC50 (hPMAT; [9]): 160 µM
7 | NC(=O)C[S+]([O-])C(c1ccccc1)c1ccccc1 (centres unmarked) [Modafinil, modafinil] | did not interact |  |  | n.s. | n.s. | did not interact | IC50 hOCT2 (inhibitory potency, [3H]MPP+ uptake) (hOCT2 [2]; [12]): n.s.; Effect on substrate uptake by hOCT2 (in words) (hOCT2 [2]): did not interact; IC50 hOCT1 (inhibitory potency, [3H]MPP+ uptake) (hOCT1 [3]; [13]): n.s.; Effect on substrate uptake by hOCT1 (in words) (hOCT1 [3]): did not interact
8 | CNC1(c2ccccc2F)CCCCC1=O (centres unmarked) [2-Fluoro-deschloroketamine, 2-fluoro-deschloroketamine] |  | 19.2 | 14.1 |  | n.s. |  | IC50 (hOCT3 [1]): 265 µM
9 | CCC[C@H](C(=O)c1ccccc1)N1CCCC1 [R- α -PVP, R- α -pyrrolidinovalerophenone] |  | 13.1 | 2.15 |  | n.s. | increased uptake of substrate | IC50 (hOCT3 [1]): 1020 µM
10 | CN(C)CCC[C@]1(c2ccc(F)cc2)OCc2cc(C#N)ccc21 [R-Citalopram, R-citalopram] |  |  |  |  |  |  | IC50 (hOCT2 [2]; [7]): 46.6 µM; IC50 (hOCT1 [3]; [8]): 5.11 µM; IC50 (hPMAT; [9]): 58.3 µM
11 | CN(C)CCc1c[nH]c2cccc(O)c12 [Psilocin, psilocin] | did not inhibit |  | 63.5 | n.s. |  | did not inhibit | IC50 hOCT2 (inhibitory potency, [3H]MPP+ uptake) (hOCT2 [2]; [12]): n.s.; Effect on substrate uptake by hOCT2 (in words) (hOCT2 [2]): did not inhibit; Effect on substrate uptake by hOCT1 (in words) (hOCT1 [3]): did not inhibit; IC50 (hPMAT): 698 µM
12 | CCC[C@@H](C(=O)c1ccccc1)N1CCCC1 [S- α -PVP, S- α -pyrrolidinovalerophenone] |  | 15 | 1.07 |  | n.s | increased uptake of substrate | IC50 (hOCT3 [1]): 457 µM
13 | COc1cccc(C2(O)CCCCC2CN(C)C)c1 (centres unmarked) [Tramadol, tramadol] | No interaction | 64.1 | 5.6 | n.s. |  | fails to fully inhibit | IC50 (hOCT1 [4]): 30 µM; Effect on substrate uptake by hOCT2 (in words) (hOCT2 [2]): fails to fully inhibit; IC50 (hPMAT): 74.2 µM
14 | CN(C)C[C@H]1CCCC[C@]1(O)c1cccc(O)c1 [O-Desmethyltramadol, O-desmethyltramadol] | No interaction | 372 | 24.2 | n.s. | n.s. |  | IC50 (hOCT1 [4]): 172 µM
